Experimental data: publication PMC9503778, “Targeted Isolation of Antibiotic Brominated Alkaloids from the Marine Sponge Pseudoceratina durissima Using Virtual Screening and Molecular Networking” (Marine Drugs, 2022)
Several values for one entry are separate records, joined by “and”; a condition that tells them apart may be missing. Equal values may be shown once. Read-outs that look alike come from different tables or passages of the source.

Columns and labels:
[1] = tested on: human red blood cells; test: Haemolysis assay (CO-ADD); type: cell-based
[2] = tested on: MRSA (G+) strain ATCC 43300; test: Antimicrobial growth inhibition (CO-ADD), MRSA; type: cell-based, Staphylococcus aureus; conditions: for inhibition at 32 µg/mL / MIC: Staphylococcus aureus
Description: (§1) Compounds 1−3 and 5−12 were assayed against a selection of medically important pathogenic microorganisms (MRSA, E. coli, K. pneumoniae, A. baumanii, P. aeruginosa, C. albicans, C. neoformans), Table 4. […] To the best of our knowledge this compound had not been tested against any drug resistant strain of Gram-positive bacterium until this study.
(§2) The antimicrobial activity testing was performed by the Community for Antimicrobial Drug Discovery (CO-ADD). Compounds were assayed against a range of both Gram negative and Gram positive bacteria (see Supplementary Materials S3) including methicillin-resistant Staphylococcus aureus (MRSA) (G+), Escherichia coli (G-), Klebsiella pneumoniae (G-), Acinetobacter baumannii (G-), Pseudomonas aeruginosa (G-) together with two species of fungus (Candida albicans and Cryptococcus neoformans).
(§3) S3. Antimicrobial activity testing methodology
(§4) The compounds submitted to CO-ADD were evaluated in duplicate (n = 2) against seven microorganisms (five bacteria and two fungi) at a concentration of 32 µg/mL in a 384-well, non-binding surface plate (NBS) for each bacterial/fungal strain, keeping the final DMSO concentration to a maximum of 1% DMSO. All bacteria were cultured in cation-adjusted Mueller-Hinton broth (CAMHB) at 37 °C overnight. A sample of each culture was then diluted 40-fold in fresh broth and incubated at 37 °C for 1.5-3 h. The resultant mid-log phase cultures were diluted (CFU/mL measured by OD600), then added to each well of the compound containing plates, giving a cell density of 5x10^5 CFU/mL and a total volume of 50 µL. All the plates were covered and incubated at 37 °C for 18 h without shaking. […] Inhibition of bacterial growth was determined measuring absorbance at 600 nm (OD600) using a Tecan M1000 Pro mon-ochromator plate reader. […]
(§5) 2 h. The absorbance was measured using a Biotek Synergy HTX plate reader. The percentage of growth inhibition was calculated for each well, using negative control (medium only) and positive control (bacteria without inhibitors) on the same plate as the references. The significance of inhibition values was determined by modified Z-scores, calculated using the median and MAD of the samples (no controls) on the same plate. Samples with inhibition value above 80% and Z-score above 2.5 for either replicate (n = 2 on different plates) were classed as actives.
(§6) Colistin and vancomycin were used as positive bacterial inhibitor standards for Gram-negative and Gram-positive bac-teria, respectively. Fluconazole was used as a positive fungal inhibitor standard for C. albicans and C. neoformans. The antibiotics were provided in four concentrations, with two above and two below its MIC value, and plated into the first eight wells of column 23 of the 384-well NBS plates. The quality control (QC) of the assays was determined by the antimicrobial controls and the Z’-factor (using positive and negative controls). Each plate was deemed to fulfil the qual- […]
(§7) full growth inhibition at their highest concentration, and no growth inhibition at their lowest concentration. The seven […]
(§8) test microorganisms were Staphylococcus aureus MRSA (ATCC 43300), Escherichia coli (ATCC 25922), Klebsiella pneu-moniae (ATCC 700603), Acinetobacter baumanii (ATCC19606), Pseudomonas aeruginosa (ATCC 27853), Candida albicans (ATCC 90028) and Cryptococcus neoformans var. grubii (H99; ATCC 208821).
(§9) S4. Anthelmintic activity testing methodology
(§10) Dose-response evaluations were carried out to estimate the half-maximal inhibitory concentrations (IC50 values) for compounds against Haemonchus contortus (Haecon-5 strain) exsheathed third-stage larvae (xL3s). H. contortus were maintained in experimental sheep and procured in accordance with the institutional animal ethics guidelines and the regulations of Australia (permit no. 1714374; University of Melbourne). Immediately prior to use, third-stage larvae (L3s) were exsheathed and sterilised by incubation in 0.15% (v/v) bleach at 38 °C for 20 min, followed by washes in […]

[3] = tested on: E. Coli (G-) strain ATCC 25922; test: Antimicrobial growth inhibition (CO-ADD), E. coli; type: cell-based, Escherichia coli; conditions: for % inhibition E. coli: 32 µg/mL; for inhibition at 32 µg/mL / MIC: Escherichia coli
Description: as §1, §2, §3, §4, §5, §6, §7, §8, §9, §10

[4] = tested on: K. pneumoniae (G-) strain ATCC 700603; test: Antimicrobial growth inhibition (CO-ADD), K. pneumoniae; type: cell-based, Klebsiella pneumoniae; conditions: for % inhibition K. pneumoniae: 32 µg/mL; for inhibition at 32 µg/mL / MIC: Klebsiella pneumoniae
Description: as §1, §2, §3, §4, §5, §6, §7, §8, §9, §10

[5] = tested on: P. auruginosa (G-) strain ATCC 27853; test: Antimicrobial growth inhibition (CO-ADD), P. aeruginosa; type: cell-based, Pseudomonas aeruginosa; conditions: for % inhibition P. aeruginosa: 32 µg/mL; for MIC / inhibition at 32 µg/mL: Pseudomonas aeruginosa
Description: as §1, §2, §3, §4, §5, §6, §7, §8, §9, §10

[6] = tested on: C. albicans (yeast) ATCC 90028; test: Antimicrobial growth inhibition (CO-ADD), C. albicans; type: cell-based, Candida albicans; conditions: for MIC / inhibition at 32 µg/mL: Candida albicans; for % inhibition C. albicans: 32 µg/mL, duplicate (n = 2) values; for inhibition at 32 µg/mL: ATCC90028, read-out: % inhibition C. albicans, 32 µg/mL, duplicate (n = 2) values
Description: as §1, §2, §3
The compounds submitted to CO-ADD were evaluated in duplicate (n = 2) against seven microorganisms (five bacteria and two fungi) at a concentration of 32 µg/mL in a 384-well, non-binding surface plate (NBS) for each bacterial/fungal strain, keeping the final DMSO concentration to a maximum of 1% DMSO. All bacteria were cultured in cation-adjusted […]
Fungal strains were cultured for 3 days on Yeast Extract-Peptone Dextrose (YPD) agar at 30 °C. A yeast suspension of 1 x 10^6 to 5 x 10^6 CFU/mL (as determined by OD530) was prepared from five colonies. The suspension was subsequently diluted and added to each well of the compound-containing plates giving a final cell density of fungi suspension of 2.5 x 10^3 CFU/mL and a total volume of 50 µL. All plates were covered and incubated at 35 °C for 24 h without shaking. […]
as §5, §6, §7, §8, §9
Dose-response evaluations were carried out to estimate the half-maximal inhibitory concentrations (IC50 values) for compounds against Haemonchus contortus (Haecon-5 strain) exsheathed third-stage larvae (xL3s). H. contortus were maintained in experimental sheep and procured in accordance with the institutional animal ethics guidelines and the regulations of Australia (permit no. 1714374; University of Melbourne). Immediately prior to use, third-stage larvae (L3s) were exsheathed and sterilised by incubation in 0.15% (v/v) bleach at 38 °C for 20 min, followed by washes in sterile saline at room temperature (22-24 °C). […]

[7] = tested on: C. neoformans var. grubii strain ATCC 208821; test: Antimicrobial growth inhibition (CO-ADD), C. neoformans; type: cell-based; conditions: Cryptococcus neoformans
[8] = 32 µg/mL, duplicate (n = 2) values
[9] = read-out: % inhibition MRSA, 32 µg/mL, duplicate (n = 2) values
[10] = ATCC 43300, MIC = concentration at which growth inhibited by ≥80%, range 0.25−32 µg/mL, read-out: MIC MRSA
[11] = ATCC25922, read-out: % inhibition E. coli, 32 µg/mL, duplicate (n = 2) values
[12] = ATCC25922, ATCC 25922, MIC = concentration at which growth inhibited by ≥80%, read-out: MIC E. coli
[13] = ATCC700603, read-out: % inhibition K. pneumoniae, 32 µg/mL, duplicate (n = 2) values
[14] = ATCC700603, ATCC 700603, read-out: MIC K. pneumoniae
[15] = ATCC27853, ATCC 27853, read-out: MIC P. aeruginosa
[16] = ATCC90028, ATCC 90028, read-out: MIC C. albicans
[17] = ATCC208821, var. grubii ATCC 208821, read-out: MIC C. neoformans
[18] = ATCC27853, read-out: % inhibition P. aeruginosa, 32 µg/mL, duplicate (n = 2) values
[19] = ATCC25922, 32 µg/mL, duplicate (n = 2) values, read-out: % inhibition E. coli
[20] = ATCC700603, 32 µg/mL, duplicate (n = 2) values, read-out: % inhibition K. pneumoniae

SMILES | Haemolysis (HC10) [1] | % inhibition MRSA [2, 8] | inhibition at 32 µg/mL [2, 9] | MIC [2, 10] | % inhibition E. coli ([3]; duplicate (n = 2) values) | inhibition at 32 µg/mL [3, 11] | MIC [3, 12] | % inhibition K. pneumoniae ([4]; duplicate (n = 2) values) | inhibition at 32 µg/mL [4, 13] | MIC [4, 14] | % inhibition P. aeruginosa ([5]; duplicate (n = 2) values) | MIC [5, 15] | MIC [6, 16] | MIC [7, 17] | % inhibition C. albicans [6] | inhibition at 32 µg/mL [6] | also measured
COC1=C(Br)[C@H](O)[C@@]2(C=C1Br)CC(C(=O)NCCCOc1c(Br)cc(CCN)cc1Br)=NO2 [Compound 11, araplysillin I] | >32 µg/mL | 5.7% | 11.3% | > 32 µg/mL | 8.5% | 15.9% | > 32 µg/mL | 17.0% | 12.2% | > 32 µg/mL | 0.3% and 8.0% | > 32 µg/mL | > 32 µg/mL | > 32 µg/mL | – | – | –
COC1=C(Br)[C@H](O)[C@](O)(CC#N)C=C1Br [Compound 1, (+)-aeroplysinin-1] | >32 µg/mL | 96.7% | 95.9% | – | 95.2% | 93.7% | – | −2.8% and −3.3% | – | – | 18.2% | – | – | – | 9.8% | 9.5% | MIC MRSA ([2]; ATCC 43300, MIC = concentration at which growth inhibited by ≥80%, range 0.25−32 µg/mL): 32 µg/mL; MIC ([2]; read-out: MIC MRSA, ATCC 43300, MIC = concentration at which growth inhibited by ≥80%, range 0.25−32 µg/mL): < 32 µg/mL; inhibition at 32 µg/mL ([2]; read-out: mean value of % inhibition against MRSA, 32 µg/mL, mean of duplicates): 96.3%; MIC ([3]; ATCC25922, read-out: MIC E. coli): 32 µg/mL; inhibition at 32 µg/mL ([3]; ATCC25922, read-out: mean value of % inhibition against E. coli, 32 µg/mL, mean of duplicates): 94.5%; MIC ([4]; ATCC700603, read-out: MIC K. pneumoniae): > 32 µg/mL; inhibition at 32 µg/mL [5, 18]: 10.9%; MIC ([5]; ATCC27853, read-out: MIC P. aeruginosa): > 32 µg/mL; MIC ([6]; ATCC90028, read-out: MIC C. albicans): > 32 µg/mL; MIC ([7]; ATCC208821, read-out: MIC C. neoformans): > 32 µg/mL
NC(=O)Cc1c(O)cc(Br)c(O)c1Br [Compound 9, subereaphenol A] | 1.032 µg/mL | – | – | > 32 µg/mL | 1.5% and 9.6% | – | > 32 µg/mL | 15.5% and 6.6% | – | > 32 µg/mL | – | > 32 µg/mL | > 32 µg/mL | > 32 µg/mL | – | – | –
COC1=C(Br)[C@H](O)[C@@]2(C=C1Br)CC(C(=O)NCCCCCNC(=O)C1=NO[C@]3(C=C(Br)C(OC)=C(Br)[C@@H]3O)C1)=NO2 [Compound 3, homoaerothionin] | >32 µg/mL | – | – | > 32 µg/mL | −2.9% and −3.1% | – | > 32 µg/mL | 6.6% | 10.2% | > 32 µg/mL | 10.4% and 2.2% | > 32 µg/mL | > 32 µg/mL | > 32 µg/mL | 6.3% | 3.4% | –
COC1=C(Br)[C@H](O)[C@@]2(C=C1Br)CC(C(=O)NCCCOc1c(Br)cc(CCNC(=O)C3=NO[C@]4(C=C(Br)C(OC)=C(Br)[C@@H]4O)C3)cc1Br)=NO2 [Compound 5, 11,17-deoxyfistularin-3] | >32 µg/mL | 19.8% | 10% | > 32 µg/mL | 9.5% | 8.1% | > 32 µg/mL | 8.7% | 6.5% | > 32 µg/mL | 7.2% | > 32 µg/mL | > 32 µg/mL | > 32 µg/mL | 3.3% | 2.5% | inhibition at 32 µg/mL [5, 18]: 4.3%
COC1(OC)C(Br)=CC(O)(CC(N)=O)C=C1Br [Compound 6, 2-(3,5-dibromo-1-hydroxy-4,4-dimethoxycyclohexa-2,5-dien-1-yl)acetamide] | >32 µg/mL | 3.3% and 7.0% | – | > 32 µg/mL | 15.6% | – | > 32 µg/mL | 6.4% | – | > 32 µg/mL | 1.1% and 9.7% | > 32 µg/mL | > 32 µg/mL | > 32 µg/mL | 0.6% and 4.6% | – | inhibition at 32 µg/mL [3, 19]: 14.6%; inhibition at 32 µg/mL [4, 20]: 12.3%
COc1c(Br)cc(CC#N)c(O)c1Br [Compound 8, 2-(3,5-dibromo-2-hydroxy-4-methoxyphenyl)acetonitrile] | >32 µg/mL | 8.5% | – | > 32 µg/mL | 16.9% | – | > 32 µg/mL | 12.5% | – | > 32 µg/mL | 6.8% | > 32 µg/mL | > 32 µg/mL | > 32 µg/mL | – | – | inhibition at 32 µg/mL ([2]; 32 µg/mL, duplicate (n = 2) values, read-out: % inhibition MRSA): 7.6%; inhibition at 32 µg/mL [3, 19]: 12.7%; inhibition at 32 µg/mL [4, 20]: 10.3%; inhibition at 32 µg/mL ([5]; ATCC27853, 32 µg/mL, duplicate (n = 2) values, read-out: % inhibition P. aeruginosa): 11.2%
